According to PMC11823630, “In vitro potentiation of tetracyclines in Pseudomonas aeruginosa by RW01, a new cyclic peptide” (Antimicrobial Agents and Chemotherapy, 2024):
Where two headings read alike, the source gives them in different places.

How the values were obtained:
[1] = test system: P. aeruginosa PAO1; test: Checkerboard assay with RW01; type: cell-based, Pseudomonas aeruginosa
Procedure: (§1) To assess the in vitro interaction between RW01 and tetracyclines, the checkerboard assay method was performed in 96-well microtiter plates using strains PAO1 and PAOUW. In the same way as for MIC determination, BD Phoenix AST Broth (Becton Dickinson) medium was used for bacterial growth. Minocycline and tigecycline combined with RW01 were the agents selected for the assay. A column and a row of wells in the checkerboard plate were reserved for controls of each antimicrobial individually to ensure the proper concentration of the agents. Positive and negative controls were also included. Wells in rows contained serial dilutions of RW01 starting from 512 mg/L, while those in columns varied in concentrations of the antibiotic. Inoculum at ~5 × 10⁵ CFU/mL, antibiotic, RW01, and AST broth were added to a final volume of 200 µL. Plates were incubated at 37°C for 18–22 h under aerobic conditions. Three biological replicates were obtained. Fractional inhibitory concentration index (FICI) is defined as the summatory of fractional inhibitory concentrations (FICs) from compound A: RW01, and compound B: minocycline/tigecycline. FICs were calculated as:
(§2) FIC of RW01 (FICRW01)=MIC of RW01 in combination/MIC of RW01 alone,FIC of antibiotic (FICATB)=MIC of ATB in combination/MIC of ATB alone,FICI=FICRW01 +FICATB.
(§3) FICI was interpreted as follows: synergistic effect if FICI is ≤0.5; additive effect if 0.5 < FICI ≤ 1.0; indifferent effect if 1.0 < FICI ≤ 2.0; and finally, antagonistic effect if FICI is >2.0. The average FICI considering the antibiotic MIC (no growth in any of the replicates) at different concentrations of RW01 was calculated ([28]).

[2] = test system: P. aeruginosa PAOUW; test: Checkerboard assay with RW01; type: cell-based, Pseudomonas aeruginosa
Procedure: as §1, §2, §3

[3] = test system: P. aeruginosa PAOΔmexR; test: MIC, CLSI broth microdilution in BD Phoenix AST Broth; type: cell-based, Pseudomonas aeruginosa
[4] = test system: P. aeruginosa 41B; test: as above; type: cell-based, Pseudomonas aeruginosa; settings: strain 41B
[5] = test system: P. aeruginosa PAOUW∆oprF; test: as above; type: cell-based, Pseudomonas aeruginosa
[6] = test system: P. aeruginosa PAOΔmexZ; test: as above; type: cell-based, Pseudomonas aeruginosa; settings: strain PAOΔmexZ
[7] = test system: P. aeruginosa PAOΔoprM; test: as above; type: cell-based, Pseudomonas aeruginosa
[8] = test system: P. aeruginosa PAO1; test: as above; type: cell-based, Pseudomonas aeruginosa; settings: for MIC: agent alone, 37°C, 18–22 h, three biological replicates
[9] = test system: P. aeruginosa PAOUW; test: as above; type: cell-based, Pseudomonas aeruginosa; settings: strain PAOUW; for MIC: agent alone, 37°C, 18–22 h, three biological replicates
[10] = test system: P. aeruginosa 125B; test: as above; type: cell-based, Pseudomonas aeruginosa; settings: strain 125B
[11] = test system: P. aeruginosa 125A; test: as above; type: cell-based, Pseudomonas aeruginosa; settings: strain 125A
[12] = test system: P. aeruginosa 41A; test: as above; type: cell-based, Pseudomonas aeruginosa; settings: strain 41A
[13] = test system: P. aeruginosa PAO1; test: MIC in the presence of 25% mouse serum; settings: Pseudomonas aeruginosa
[14] = antibiotic combined with RW01, checkerboard, AST broth, 37°C, 18–22 h, three biological replicates
[15] = strain PAOΔmexR, antibiotic with RW01 at 100 mg/L
[16] = Pseudomonas aeruginosa, agent alone, 37°C, 18–22 h, three biological replicates
[17] = antibiotic MIC alone vs with RW01 100 mg/L
[18] = antibiotic with RW01 at 100 mg/L
[19] = strain PAOUWΔoprF (printed PAOΔoprF), antibiotic with RW01 at 100 mg/L
[20] = MIC of the antibiotic with fixed 100 mg/L RW01
[21] = strain PAOΔoprM, antibiotic with RW01 at 100 mg/L
[22] = strain PAO1, antibiotic with RW01 at 100 mg/L

CN(C)c1ccc(O)c2c1C[C@H]1C[C@H]3[C@H](N(C)C)C(O)=C(C(N)=O)C(=O)[C@@]3(O)C(O)=C1C2=O [Minocycline, minocycline]
interaction with RW01 (checkerboard) [1]: additive
average FIC Index [1, 14]: 0.535
interaction with RW01 (checkerboard) [2]: synergistic
average FIC Index [2, 14]: 0.406
MIC ([3]; Pseudomonas aeruginosa): 8 µg/mL
Antibiotic MIC + RW01 100 mg/L ([3]; strain PAOΔmexR, MIC of the antibiotic with fixed 100 mg/L RW01): 1 µg/mL
Potentiation (fold) ([3]; strain PAOΔmexR, antibiotic MIC alone vs with RW01 100 mg/L): 8 fold
FICI [3, 15]: 0.223
FICI-determined effect [3, 15]: Synergy (synergistic effect if FICI is ≤0.5)
MIC [4, 16]: 16 µg/mL
Potentiation (fold) [4, 17]: 8 fold
FICI [4, 18]: 0.223
FICI-determined effect [4, 18]: Synergy (synergistic effect if FICI is ≤0.5)
MIC ([5]; Pseudomonas aeruginosa, strain PAOUWΔoprF, agent alone, 37°C, 18–22 h, three biological replicates): 8 µg/mL
Potentiation (fold) ([5]; strain PAOUWΔoprF (printed PAOΔoprF), antibiotic MIC alone vs with RW01 100 mg/L): 8 fold
FICI [5, 19]: 0.223
FICI-determined effect [5, 19]: Synergy (synergistic effect if FICI is ≤0.5)
Antibiotic MIC + RW01 100 mg/L ([5]; strain PAOUWΔoprF, MIC of the antibiotic with fixed 100 mg/L RW01): 1 µg/mL
MIC [6, 16]: 8 µg/mL
Antibiotic MIC + RW01 100 mg/L [6, 20]: 1 µg/mL
FICI [6, 18]: 0.160
FICI-determined effect [6, 18]: Synergy (synergistic effect if FICI is ≤0.5)
MIC ([7]; Pseudomonas aeruginosa): 2 µg/mL
Antibiotic MIC + RW01 100 mg/L ([7]; strain PAOΔoprM, MIC of the antibiotic with fixed 100 mg/L RW01): 0.5 µg/mL
Potentiation (fold) ([7]; strain PAOΔoprM, antibiotic MIC alone vs with RW01 100 mg/L): 4 fold
FICI [7, 21]: 0.348
FICI-determined effect [7, 21]: Synergy (synergistic effect if FICI is ≤0.5)
MIC ([8]; Pseudomonas aeruginosa, PAO1, strain PAO1, read-out: MIC): 8 to 16 µg/mL
Antibiotic MIC + RW01 100 mg/L ([8]; strain PAO1, MIC of the antibiotic with fixed 100 mg/L RW01): 2 µg/mL
MIC ([8]; strain PAO1): 8 µg/mL
Potentiation (fold) ([8]; strain PAO1, antibiotic MIC alone vs with RW01 100 mg/L): 4 fold
FICI [8, 22]: 0.445
FICI-determined effect [8, 22]: Synergy (synergistic effect if FICI is ≤0.5)
MIC ([9]; Pseudomonas aeruginosa, read-out: MIC): 16 µg/mL
MIC [9]: 8 µg/mL
Potentiation (fold) [9, 17]: 8 fold
FICI [9, 18]: 0.223
FICI-determined effect [9, 18]: Synergy (synergistic effect if FICI is ≤0.5)
MIC [10, 16]: 8 µg/mL
Antibiotic MIC + RW01 100 mg/L [10, 20]: 1 µg/mL
Potentiation (fold) [10, 17]: 8 fold
FICI [10, 18]: 0.320
FICI-determined effect [10, 18]: Synergy (synergistic effect if FICI is ≤0.5)
MIC [11, 16]: 8 µg/mL
Antibiotic MIC + RW01 100 mg/L [11, 20]: 1 µg/mL
Potentiation (fold) [11, 17]: 8 fold
FICI [11, 18]: 0.320
FICI-determined effect [11, 18]: Synergy (synergistic effect if FICI is ≤0.5)
MIC [12, 16]: 8 µg/mL
Antibiotic MIC + RW01 100 mg/L [12, 20]: 2 µg/mL
Potentiation (fold) [12, 17]: 4 fold
FICI [12, 18]: 0.348
FICI-determined effect [12, 18]: Synergy (synergistic effect if FICI is ≤0.5)
MIC ([13]; PAO1, read-out: MIC + RW01 in the presence of serum): 4 µg/mL
MIC ([13]; PAO1, read-out: MIC in the presence of serum): 32 µg/mL
